Source: ChEMBL document CHEMBL6153141, “Design, Synthesis, and Mechanism Study of Novel BMX Inhibitors Based on the Core of 1,3,5-Triazin-2-Amine for the Treatment of Gastric Carcinoma” (J Med Chem, 2025)
Calls of active or inactive are those of the source. No cut-off for these calls is given here.

Tests used:
HGC-27 [1] = experiment: Effect on mTOR expression in human HGC-27 cells at 5 to 15 uM incubated for 48 hrs by Western blot analysis; format: functional, cell-based; settings: dose 5-15 µM
[2] = Tmax in Sprague-Dawley rat at 5 mg/kg, po or 5 mg/kg, iv measured after 24 hrs by LC-MS/MS analysis; format: ADME, organism-based; settings: in vivo
MCF7 = experiment: Anticancer activity against human MCF7 cells assessed as inhibition of cell proliferation incubated for 72 hrs by MTT assay; format: functional, cell-based; settings: MCF7, 72 h
Cytochrome P450 2C9 = Cytochrome P450 2C9 (Homo sapiens, UniProt P11712); experiment: Inhibition of CYP2C9 in human liver microsomes using tolbutamide as substrate preincubated for 5 mins followed by NADPH addition and measured after 10 mins by LC-MS/MS analysis; format: ADME, Microsome
MGC-803 [3] = experiment: Anti-invasive activity in human MGC-803 cells assessed as decrease in invasion ability at 10 to 20 uM incubated for 48 hrs by transwell assay; format: functional, cell-based; settings: dose 10-20 µM
HeLa = experiment: Anticancer activity against human HeLa cells assessed as inhibition of cell proliferation incubated for 72 hrs by MTT assay; format: functional, cell-based
MGC-803 [4] = experiment: Induction of apoptosis in human MGC-803 cells assessed as increase in cleaved caspase 3 level incubated for 48 hrs by Western blot analysis; format: functional, cell-based; settings: dose 10-20 µM
Cytochrome P450 2D6 = Cytochrome P450 2D6 (Homo sapiens, UniProt P10635); experiment: Inhibition of CYP2D6 in human liver microsomes using dextromethorphan as substrate preincubated for 5 mins followed by NADPH addition and measured after 10 mins by LC-MS/MS analysis; format: ADME, Microsome
C6661 = experiment: Anticancer activity against human C666-1 cells assessed as inhibition of cell proliferation incubated for 72 hrs by MTT assay; format: functional, cell-based; settings: C6661, 72 h
MGC-803 [5] = experiment: Induction of apoptosis in human MGC-803 cells assessed as increase in apoptotic cells at 10 to 20 uM incubated for 48 hrs by Annexin V-FITC/PI staining based flow cytometric analysis; format: functional, cell-based; settings: dose 10-20 µM
HGC-27 [6] = experiment: Induction of autophagy in human HGC-27 cells assessed as increase in LC3B protein expression incubated for 48 hrs by Western blot analysis; format: functional, cell-based; settings: dose 5-15 µM
[7] = Cytotoxicity against human GES1 cells assessed as inhibition of cell proliferation incubated for 72 hrs by MTT assay; format: toxicity, cell-based
[8] = Cmax in Sprague-Dawley rat at 5 mg/kg, po or 5 mg/kg, iv measured after 24 hrs by LC-MS/MS analysis; format: ADME, organism-based; settings: in vivo
AGS = experiment: Anticancer activity against human AGS cells assessed as inhibition of cell proliferation incubated for 72 hrs by MTT assay; format: functional, cell-based
HGC-27 [9] = experiment: Antiproliferative activity against human HGC-27 cells assessed as inhibition of cell viability incubated for 24 to 72 hrs by MTT assay; format: functional, cell-based; settings: dose <= 50.0 µM, time 24-72 hrs
[10] = molecular target: Epidermal growth factor receptor (Homo sapiens, UniProt P00533); experiment: Inhibition of EGFR (unknown origin) in presence of ATP at Km concentration
[11] = Cytotoxicity against human L02 cells assessed as inhibition of cell proliferation incubated for 72 hrs by MTT assay; format: toxicity, cell-based
MGC-803 [12] = experiment: Downregulation of BMX protein expression in human MGC-803 cells incubated for 48 hrs by Western blot analysis; format: functional, cell-based; settings: dose 10-20 µM
MGC-803 [13] = experiment: Antiproliferative activity against human MGC-803 cells assessed as inhibition of cell viability incubated for 24 to 72 hrs by MTT assay; format: functional, cell-based; settings: dose <= 50.0 µM, time 24-72 hrs
MGC-803 [14] = experiment: Antiproliferative activity against human MGC-803 cells assessed as reduction in number of EdU-positive cells incubated for 48 hrs by confocal laser scanning microscopic analysis; format: functional, cell-based; settings: dose 5-15 µM
[15] = molecular target: Receptor tyrosine-protein kinase erbB-4 (Homo sapiens, UniProt Q15303); experiment: Inhibition of HER4 (unknown origin) in presence of ATP at Km concentration
[16] = Cytotoxicity against H9c2 cells assessed as inhibition of cell proliferation incubated for 72 hrs by MTT assay; format: toxicity, cell-based; settings: rat
HGC-27 [17] = experiment: Induction of apoptosis in human HGC-27 cells assessed as increase in cleaved caspase 3 level incubated for 48 hrs by Western blot analysis; format: functional, cell-based; settings: dose 5-15 µM
HGC-27 [18] = experiment: Antiproliferative activity against human HGC-27 cells assessed as inhibition of cell viability upto 50 uM by MTT assay; format: functional, cell-based; settings: time 24-72 hrs
[19] = Half-life in Sprague-Dawley rat at 5 mg/kg, po or 5 mg/kg, iv measured after 24 hrs by LC-MS/MS analysis; format: ADME, organism-based; settings: in vivo
Cytochrome P450 3A4 = Cytochrome P450 3A4 (Homo sapiens, UniProt P08684); experiment: Inhibition of CYP3A4 in human liver microsomes using testosterone as substrate preincubated for 5 mins followed by NADPH addition and measured after 10 mins by LC-MS/MS analysis; format: ADME, Microsome
[20] = Cytotoxicity against HEK293 cells assessed as inhibition of cell proliferation incubated for 72 hrs by MTT assay; format: toxicity, cell-based; settings: human
HGC-27 [21] = experiment: Induction of apoptosis in human HGC-27 cells assessed as increase in cleaved caspase 9 level incubated for 48 hrs by Western blot analysis; format: functional, cell-based; settings: dose 5-15 µM
HGC-27 [22] = experiment: Downregulation of BMX protein expression in human HGC-27 cells incubated for 48 hrs by Western blot analysis; format: functional, cell-based; settings: dose 5-15 µM
[23] = Toxicity in female BALB/c nude mouse model xenografted with human HGC-27 cells assessed as effect on kidney at 30 mg/kg, ip administered for 21 days by H and E staining based analysis; format: organism-based; settings: in vivo, 504 h, time 21 day
HGC-27 [24] = experiment: Anticancer activity against human HGC-27 cells assessed as inhibition of cell proliferation incubated for 72 hrs by MTT assay; format: functional, cell-based; settings: HGC-27, 72 h
4T1 = experiment: Anticancer activity against mouse 4T1 cells assessed as inhibition of cell proliferation incubated for 72 hrs by MTT assay; format: functional, cell-based; settings: 4T1, 72 h
MGC-803 [25] = experiment: Induction of apoptosis in human MGC-803 cells assessed as increase in cleaved PARP level incubated for 48 hrs by Western blot analysis; format: functional, cell-based; settings: dose 10-20 µM
[26] = Toxicity in female BALB/c nude mouse model xenografted with human HGC-27 cells assessed as effect on liver at 30 mg/kg, ip administered for 21 days by H and E staining based analysis; format: organism-based; settings: in vivo, 504 h, time 21 day
[27] = Toxicity in female BALB/c nude mouse model xenografted with human HGC-27 cells assessed as effect on heart at 30 mg/kg, ip administered for 21 days by H and E staining based analysis; format: organism-based; settings: in vivo, 504 h, time 21 day
HCT-116 = experiment: Anticancer activity against human HCT-116 cells assessed as inhibition of cell proliferation incubated for 72 hrs by MTT assay; format: functional, cell-based; settings: HCT-116, 72 h
MGC-803 [28] = experiment: Inhibition of colony formation in human MGC-803 cells assessed as decrease in clonogenic ability at 2.5 to 10 uM incubated for 48 hrs by crystal violet staining based analysis; format: functional, cell-based; settings: dose 2.5-10 µM
[29] = molecular target: Tyrosine-protein kinase ITK/TSK (Homo sapiens, UniProt Q08881); experiment: Inhibition of ITK (unknown origin) in presence of ATP at Km concentration
HGC-27 [30] = experiment: Inhibition of colony formation in human HGC-27 cells assessed as decrease in clonogenic ability at 2.5 to 10 uM incubated for 48 hrs by crystal violet staining based analysis; format: functional, cell-based; settings: dose 2.5-10 µM
HGC-27 [31] = experiment: cells; settings: Homo sapiens, HGC-27, 48 h
Description: Antiproliferative activity against human HGC-27 cells assessed as inhibition of cell viability incubated for 48 hrs by MTT assay

Sequence of Cytochrome P450 2D6 (P10635 whole entry): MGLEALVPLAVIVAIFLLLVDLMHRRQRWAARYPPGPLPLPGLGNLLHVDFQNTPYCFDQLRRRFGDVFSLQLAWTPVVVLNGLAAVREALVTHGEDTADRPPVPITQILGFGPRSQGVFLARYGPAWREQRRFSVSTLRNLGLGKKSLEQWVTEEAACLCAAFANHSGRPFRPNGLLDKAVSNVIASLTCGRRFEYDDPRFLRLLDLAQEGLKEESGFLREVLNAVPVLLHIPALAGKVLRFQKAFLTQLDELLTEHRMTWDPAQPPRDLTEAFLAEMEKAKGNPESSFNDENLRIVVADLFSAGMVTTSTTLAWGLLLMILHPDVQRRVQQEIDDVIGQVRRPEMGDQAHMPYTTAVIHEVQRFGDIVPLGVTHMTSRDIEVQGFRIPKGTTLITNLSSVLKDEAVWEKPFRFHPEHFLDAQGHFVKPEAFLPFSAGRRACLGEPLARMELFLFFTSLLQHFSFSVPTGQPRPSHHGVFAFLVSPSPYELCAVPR
Sequence of Cytochrome P450 2C9 (P11712 whole entry): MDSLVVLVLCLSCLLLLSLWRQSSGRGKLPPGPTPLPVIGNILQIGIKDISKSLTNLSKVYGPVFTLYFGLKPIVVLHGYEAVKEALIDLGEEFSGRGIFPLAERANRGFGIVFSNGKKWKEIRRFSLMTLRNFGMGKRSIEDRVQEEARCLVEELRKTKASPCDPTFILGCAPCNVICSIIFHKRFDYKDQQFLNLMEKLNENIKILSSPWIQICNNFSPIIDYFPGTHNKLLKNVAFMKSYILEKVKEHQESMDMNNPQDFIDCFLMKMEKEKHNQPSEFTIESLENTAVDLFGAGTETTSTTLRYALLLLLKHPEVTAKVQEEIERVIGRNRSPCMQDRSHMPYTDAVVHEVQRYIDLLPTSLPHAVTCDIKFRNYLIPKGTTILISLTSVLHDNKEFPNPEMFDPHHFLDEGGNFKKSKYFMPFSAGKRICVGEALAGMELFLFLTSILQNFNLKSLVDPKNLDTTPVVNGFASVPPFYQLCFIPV
Sequence of Epidermal growth factor receptor (P00533 whole entry): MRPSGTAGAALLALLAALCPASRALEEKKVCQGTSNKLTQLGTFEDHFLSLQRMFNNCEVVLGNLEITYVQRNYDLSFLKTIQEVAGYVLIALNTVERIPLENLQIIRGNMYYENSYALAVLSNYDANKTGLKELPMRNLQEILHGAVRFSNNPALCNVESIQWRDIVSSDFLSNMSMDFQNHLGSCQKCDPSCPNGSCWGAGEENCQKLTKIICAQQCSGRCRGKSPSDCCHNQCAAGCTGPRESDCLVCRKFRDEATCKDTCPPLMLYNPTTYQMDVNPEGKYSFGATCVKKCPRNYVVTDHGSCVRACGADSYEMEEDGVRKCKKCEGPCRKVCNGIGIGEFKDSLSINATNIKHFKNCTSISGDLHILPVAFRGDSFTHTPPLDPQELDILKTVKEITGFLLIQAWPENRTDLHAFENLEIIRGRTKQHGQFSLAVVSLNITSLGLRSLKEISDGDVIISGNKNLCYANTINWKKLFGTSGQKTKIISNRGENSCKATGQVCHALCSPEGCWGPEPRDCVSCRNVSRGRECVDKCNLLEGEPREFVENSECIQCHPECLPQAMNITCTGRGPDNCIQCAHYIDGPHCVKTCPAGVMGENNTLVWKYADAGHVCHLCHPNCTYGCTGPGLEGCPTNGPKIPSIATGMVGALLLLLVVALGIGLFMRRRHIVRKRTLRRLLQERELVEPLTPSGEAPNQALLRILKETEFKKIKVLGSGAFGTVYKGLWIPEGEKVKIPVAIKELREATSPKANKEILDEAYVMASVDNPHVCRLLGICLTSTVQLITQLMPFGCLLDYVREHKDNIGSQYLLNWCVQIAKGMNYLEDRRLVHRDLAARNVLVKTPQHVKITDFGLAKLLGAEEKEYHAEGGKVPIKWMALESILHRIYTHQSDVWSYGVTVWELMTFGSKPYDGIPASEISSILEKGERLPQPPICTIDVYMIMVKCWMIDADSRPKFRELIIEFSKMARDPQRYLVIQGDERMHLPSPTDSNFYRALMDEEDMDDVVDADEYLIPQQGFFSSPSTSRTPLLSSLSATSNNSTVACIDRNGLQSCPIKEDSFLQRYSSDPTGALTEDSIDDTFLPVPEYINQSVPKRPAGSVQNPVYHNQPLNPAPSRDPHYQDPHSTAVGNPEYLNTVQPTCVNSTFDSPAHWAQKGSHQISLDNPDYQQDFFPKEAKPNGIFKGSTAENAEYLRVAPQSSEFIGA
Sequence of Tyrosine-protein kinase ITK/TSK (Q08881 whole entry): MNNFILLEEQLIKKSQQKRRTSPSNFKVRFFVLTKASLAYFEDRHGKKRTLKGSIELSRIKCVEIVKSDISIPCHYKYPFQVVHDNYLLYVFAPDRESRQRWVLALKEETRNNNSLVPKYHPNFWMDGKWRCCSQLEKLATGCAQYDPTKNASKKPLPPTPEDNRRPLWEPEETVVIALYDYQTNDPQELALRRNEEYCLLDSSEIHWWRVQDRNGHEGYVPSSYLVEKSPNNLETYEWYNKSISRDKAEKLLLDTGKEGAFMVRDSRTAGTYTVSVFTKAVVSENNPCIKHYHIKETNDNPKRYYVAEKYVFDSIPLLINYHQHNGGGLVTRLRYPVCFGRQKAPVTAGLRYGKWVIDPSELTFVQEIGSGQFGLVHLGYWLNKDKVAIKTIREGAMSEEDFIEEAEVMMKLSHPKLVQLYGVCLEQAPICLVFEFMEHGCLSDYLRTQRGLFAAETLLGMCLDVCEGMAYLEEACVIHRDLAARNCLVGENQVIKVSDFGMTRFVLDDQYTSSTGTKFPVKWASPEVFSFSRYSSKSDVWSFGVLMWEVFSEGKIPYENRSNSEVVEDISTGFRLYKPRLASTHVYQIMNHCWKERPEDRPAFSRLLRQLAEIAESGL
Sequence of Cytochrome P450 3A4 (P08684 whole entry): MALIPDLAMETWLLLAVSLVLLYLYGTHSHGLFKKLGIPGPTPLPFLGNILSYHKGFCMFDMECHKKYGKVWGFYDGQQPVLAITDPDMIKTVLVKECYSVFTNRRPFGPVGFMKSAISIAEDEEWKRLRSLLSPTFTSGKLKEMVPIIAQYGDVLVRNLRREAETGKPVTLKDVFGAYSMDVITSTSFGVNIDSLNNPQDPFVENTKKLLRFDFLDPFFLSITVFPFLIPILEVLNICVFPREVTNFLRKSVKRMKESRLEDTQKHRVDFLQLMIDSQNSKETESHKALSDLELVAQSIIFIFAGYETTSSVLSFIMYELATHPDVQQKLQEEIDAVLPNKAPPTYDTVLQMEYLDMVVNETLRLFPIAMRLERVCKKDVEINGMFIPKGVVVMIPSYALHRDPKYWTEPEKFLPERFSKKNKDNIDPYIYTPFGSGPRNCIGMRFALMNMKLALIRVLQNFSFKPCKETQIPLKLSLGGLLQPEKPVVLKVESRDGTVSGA
Sequence of Receptor tyrosine-protein kinase erbB-4 (Q15303 whole entry): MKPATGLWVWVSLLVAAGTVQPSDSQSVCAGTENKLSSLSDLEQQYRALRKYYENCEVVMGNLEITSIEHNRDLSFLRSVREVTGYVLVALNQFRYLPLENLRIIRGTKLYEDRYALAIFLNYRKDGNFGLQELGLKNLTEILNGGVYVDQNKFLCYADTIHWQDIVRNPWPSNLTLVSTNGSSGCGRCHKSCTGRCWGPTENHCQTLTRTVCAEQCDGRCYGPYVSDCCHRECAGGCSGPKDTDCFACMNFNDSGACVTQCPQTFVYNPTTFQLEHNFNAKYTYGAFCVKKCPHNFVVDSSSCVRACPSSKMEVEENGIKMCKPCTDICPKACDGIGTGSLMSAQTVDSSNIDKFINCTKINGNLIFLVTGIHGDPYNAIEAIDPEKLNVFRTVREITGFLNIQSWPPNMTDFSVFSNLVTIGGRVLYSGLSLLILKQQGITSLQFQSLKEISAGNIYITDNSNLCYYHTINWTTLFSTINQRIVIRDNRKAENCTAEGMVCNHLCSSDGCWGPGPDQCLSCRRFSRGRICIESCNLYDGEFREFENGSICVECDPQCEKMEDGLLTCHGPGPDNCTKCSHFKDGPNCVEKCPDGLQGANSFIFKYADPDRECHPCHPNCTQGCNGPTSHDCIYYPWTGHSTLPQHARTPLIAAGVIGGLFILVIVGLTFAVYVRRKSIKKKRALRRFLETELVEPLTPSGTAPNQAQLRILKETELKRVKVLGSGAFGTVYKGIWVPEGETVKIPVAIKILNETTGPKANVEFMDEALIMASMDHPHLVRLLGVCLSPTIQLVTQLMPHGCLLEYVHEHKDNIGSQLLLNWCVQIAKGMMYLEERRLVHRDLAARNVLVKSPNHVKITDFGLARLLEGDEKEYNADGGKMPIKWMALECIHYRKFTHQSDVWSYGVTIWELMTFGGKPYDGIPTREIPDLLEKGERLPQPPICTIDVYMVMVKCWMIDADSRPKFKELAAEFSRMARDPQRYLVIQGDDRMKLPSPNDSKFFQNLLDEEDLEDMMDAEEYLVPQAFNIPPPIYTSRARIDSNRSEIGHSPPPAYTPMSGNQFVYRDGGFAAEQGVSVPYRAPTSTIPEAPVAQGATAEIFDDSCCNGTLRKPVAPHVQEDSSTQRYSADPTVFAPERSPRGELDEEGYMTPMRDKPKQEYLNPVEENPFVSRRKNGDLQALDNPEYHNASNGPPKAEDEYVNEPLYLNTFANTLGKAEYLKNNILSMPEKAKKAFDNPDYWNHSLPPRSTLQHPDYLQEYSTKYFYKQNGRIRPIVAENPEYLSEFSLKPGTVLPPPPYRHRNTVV

C=CS(=O)(=O)N1CCC[C@@H](Nc2nc(N)nc(Nc3cccc(Oc4ccccc4)c3)n2)C1
Activity (HGC-27 [1]): inactive
Tmax [2]: 6 min
IC50 (MCF7): 8.3 µM
IC50 (Cytochrome P450 2C9): 16.8 µM
Activity (MGC-803 [3]): Active
IC50 (HeLa): 6.5 µM
Activity (MGC-803 [4]): Dose-dependent-effect
IC50 (Cytochrome P450 2D6): 82 µM
IC50 (C6661): 14.9 µM
Activity (MGC-803 [5]): Active
Activity (HGC-27 [6]): Dose-dependent-effect
IC50 at 72 h [7]: 21.2 µM
Cmax [8]: 73.5 ng/mL
IC50 (AGS): 8 µM
Activity (HGC-27 [9]): Dose-dependent-effect
IC50 [10]: 0.468 µM
IC50 at 72 h [11]: > 32 µM
Activity (MGC-803 [12]): Dose-dependent-effect
Activity (MGC-803 [13]): Dose-dependent-effect
Activity (MGC-803 [14]): Dose-dependent-effect
IC50 [15]: > 1 µM
IC50 at 72 h [16]: > 32 µM
Activity (HGC-27 [17]): Dose-dependent-effect
Activity (HGC-27 [18]): Time-dependent-effect
half-life [19]: 18.3 h
IC50 (Cytochrome P450 3A4): > 100 µM
IC50 at 72 h [20]: > 32 µM
Activity (HGC-27 [21]): Dose-dependent-effect
Activity (HGC-27 [22]): Dose-dependent-effect
Activity [23]: Non-toxic
IC50 (HGC-27 [24]): 9.6 µM
IC50 (4T1): 16.6 µM
Activity (MGC-803 [25]): Dose-dependent-effect
Activity [26]: Non-toxic
Activity [27]: Non-toxic
IC50 (HCT-116): 15.9 µM
inhibition (MGC-803 [28]): Active
IC50 [29]: > 1 µM
inhibition (HGC-27 [30]): Active
IC50 (HGC-27 [31]): 10.5 µM
